The inhibition is the relative decrease from the control value, in per cent.

In the assay the target is T1, JNK1α1 (Homo sapiens, UniProt P45983).
T1 construct: catalytic domain containing amino acids 1-364 and N-terminal hexahistidine tag; hexahistidine (His6) (N); made in house; host or cells: E. coli BL21 (DE3)
Briefly: Coupled spectrophotometric (PK/LDH) JNK1α1 assay: % inhibition and Ki determination. Type of assay: biochemical. Particulars: @1 uM; read-out: % Inhibition JNK-1. The method, boiled down:
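Initial rates were taken from the absorbance decrease at 340 nm at 30° C. Ki was fitted with a tight-binding model over 11 concentrations (top 100 μM); single-point inhibition was tested at 1 or 10 μM.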

T1 sequence (P45983 1-364): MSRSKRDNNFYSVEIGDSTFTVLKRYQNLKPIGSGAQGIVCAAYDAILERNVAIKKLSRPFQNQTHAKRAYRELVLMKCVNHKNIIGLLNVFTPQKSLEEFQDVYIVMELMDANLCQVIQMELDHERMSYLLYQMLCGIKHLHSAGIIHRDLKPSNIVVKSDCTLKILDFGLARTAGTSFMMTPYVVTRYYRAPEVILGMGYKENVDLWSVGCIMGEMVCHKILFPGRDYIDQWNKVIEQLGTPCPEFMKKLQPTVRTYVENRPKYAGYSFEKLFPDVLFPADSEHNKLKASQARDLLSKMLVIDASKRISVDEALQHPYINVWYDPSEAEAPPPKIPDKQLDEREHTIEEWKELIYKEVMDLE

On to `O[C@H]1CC[C@H](Nc2ncc3ccc(OC4CCOCC4)cc3n2)CC1` [Example 268, trans-4-{[7-(tetrahydro-2H-pyran-4-yloxy)quinazolin-2-yl]amino}cyclohexanol], for which the inhibition at 1 µM is 67%.

As to `CN(C)C(C)(C)COc1ccc2cnc(N[C@H]3CC[C@H](O)CC3)nc2c1` [Example 269, trans-4-({7-[2-(dimethylamino)-2-methylpropoxy]quinazolin-2-yl}amino)cyclohexanol], the inhibition at 1 µM is 29%.

Consider `CN1CCCC(COc2ccc3cnc(N[C@H]4CC[C@H](O)CC4)nc3c2)C1` (stereo partly drawn) [Example 270, trans-4-({7-[(1-methylpiperidin-3-yl)methoxy]quinazolin-2-yl}amino)cyclohexanol], for which the inhibition at 1 µM is 40%.

As for `CN1CCC(Oc2ccc3cnc(N[C@H]4CC[C@H](O)CC4)nc3c2)CC1` [Example 271, trans-4-({7-[(1-methylpiperidin-4-yl)oxy]quinazolin-2-yl}amino)cyclohexanol], the inhibition at 1 µM amounted to 41%. As for `COCCOc1ccc2cnc(N[C@H]3CC[C@H](O)CC3)nc2c1` [Example 272, trans-4-{[7-(2-methoxyethoxy)quinazolin-2-yl]amino)cyclohexanol], the figure is 63%.

Regarding `CN1CCC[C@H]1COc1ccc2cnc(N[C@H]3CC[C@H](O)CC3)nc2c1` [Example 273, trans-4-[(7-{[(2S)-1-methylpyrrolidin-2-yl]methoxy}quinazolin-2-yl)amino]cyclohexanol], the inhibition at 1 µM is 24%. As for `CC(CN1CCOCC1)Oc1ccc2cnc(N[C@H]3CC[C@H](O)CC3)nc2c1` (stereo partly drawn) [Example 274, trans-4-{[7-(1-methyl-2-morpholin-4-ylethoxy)quinazolin-2-yl]amino}cyclohexanol], the figure is 25%. As to `CCOCC(C)Oc1ccc2cnc(N[C@H]3CC[C@H](O)CC3)nc2c1` (stereo partly drawn) [Example 275, trans-4-{[7-(2-ethoxy-1-methylethoxy)quinazolin-2-yl]amino}cyclohexanol], the inhibition at 1 µM came out at 52%. As for `O[C@H]1CC[C@H](Nc2ncc3ccc(OC[C@@H]4CCCN4Cc4ccccc4)cc3n2)CC1` [Example 276, trans-4-[(7-{[(2S)-1-benzylpyrrolidin-2-yl]methoxy}quinazolin-2-yl)amino]cyclohexanol], the figure is 22%; as for `O[C@H]1CC[C@H](Nc2ncc3ccc(O[C@H]4CCN(Cc5ccccc5)C4)cc3n2)CC1` [Example 277, trans-4-[(7-{[(3S)-1-benzylpyrrolidin-3-yl]oxy}quinazolin-2-yl)amino]cyclohexanol], 46%.

Turning to `CCN1CCC(Oc2ccc3cnc(N[C@H]4CC[C@H](O)CC4)nc3c2)C1` (stereo partly drawn) [Example 278, trans-4-({7-[(1-ethylpyrrolidin-3-yl)oxy]quinazolin-2-yl}amino)cyclohexanol], the inhibition at 1 µM was determined as 27%. With `O[C@H]1CC[C@H](Nc2ncc3ccc(OC4CCC(F)(F)CC4)cc3n2)CC1` [Example 279, trans-4-({7-[(4,4-difluorocyclohexyl)oxy]quinazolin-2-yl}amino)cyclohexanol] the figure was 54%. As for `O=C1CC[C@@H](COc2ccc3cnc(N[C@H]4CC[C@H](O)CC4)nc3c2)N1` [Example 280, (5S)-5-[({2-[(trans-4-hydroxycyclohexyl)amino]quinazolin-7-yl}oxy)methyl]pyrrolidin-2-one], the figure is 37%; as for `CC1(COc2ccc3cnc(N[C@H]4CC[C@H](O)CC4)nc3c2)COC1` [Example 281, trans-4-({7-[(3-methyloxetan-3-yl)methoxy]quinazolin-2-yl}amino)cyclohexanol], 72%; as for `O=C1OCCN1CCOc1ccc2cnc(N[C@H]3CC[C@H](O)CC3)nc2c1` [Example 282, 3-[2-({2-[(trans-4-hydroxycyclohexyl)amino]quinazolin-7-yl}oxy)ethyl]-1,3-oxazolidin-2-one], 71%. With `O[C@H]1CC[C@H](Nc2ncc3ccc(OC[C@@H]4CCCN5CCCC[C@H]45)cc3n2)CC1` [Example 283, trans-4-({7-[(1R,9aR)-octahydro-2H-quinolizin-1-ylmethoxy]quinazolin-2-yl}amino)cyclohexanol] the figure was 33%; with `O=C1CC[C@H](COc2ccc3cnc(N[C@H]4CC[C@H](O)CC4)nc3c2)N1` [Example 284, (5R)-5-[({2-[(trans-4-hydroxycyclohexyl)amino]quinazolin-7-yl}oxy)methyl]pyrrolidin-2-one], 53%; with `O[C@H]1CC[C@H](Nc2ncc3ccc(O[C@@H]4CCN(Cc5ccccc5)C4)cc3n2)CC1` [Example 285, trans-4-[(7-{[(3R)-1-benzylpyrrolidin-3-yl]oxy}quinazolin-2-yl)amino]cyclohexanol], 29%. Turning to `O[C@H]1CC[C@H](Nc2ncc3ccc(OC4CCCN(Cc5ccccn5)C4)cc3n2)CC1` (stereo partly drawn) [Example 286, trans-4-[(7-{[1-(pyridin-2-ylmethyl)piperidin-3-yl]oxy}quinazolin-2-yl)amino]cyclohexanol], the inhibition at 1 µM turned out to be 42%. As for `O=C1CN2C[C@@H](Oc3ccc4cnc(N[C@H]5CC[C@H](O)CC5)nc4c3)CC[C@H]2CN1` [Example 287, (7S,9aS)-7-({2-[(trans-4-hydroxycyclohexyl)amino]quinazolin-7-yl}oxy)hexahydro-2H-pyrido[1,2-a]pyrazin-3(4H)-one], the figure is 62%. With `O[C@H]1CC[C@H](Nc2ncc3ccc(OCc4nc5ccccc5[nH]4)cc3n2)CC1` [Example 288, trans-4-{[7-(1H-benzimidazol-2-ylmethoxy)quinazolin-2-yl]amino}cyclohexanol] the figure was 39%; with `CN1C(=O)OC[C@@H]1COc1ccc2cnc(N[C@H]3CC[C@H](O)CC3)nc2c1` [Example 289, 4-[({2-[(trans-4-hydroxycyclohexyl)amino]quinazolin-7-yl}oxy)methyl]-3-methyl-1,3-oxazolidin-2-one], 69%; with `O[C@H]1CC[C@H](Nc2ncc3ccc(OCC(F)(F)c4ccccn4)cc3n2)CC1` [Example 290, trans-4-{[7-(2,2-difluoro-2-pyridin-2-ylethoxy)quinazolin-2-yl]amino}cyclohexanol], 53%.

With `CO[C@H]1CCCC[C@@H]1Oc1ccc2cnc(N[C@H]3CC[C@H](O)CC3)nc2c1` [Example 291, trans-4-[(7-{[(1S,2S)-2-methoxycyclohexyl]oxy}quinazolin-2-yl)amino]cyclohexanol], the inhibition at 1 µM was determined as 37%. As for `CNC(=O)c1ccc2c(c1)CCO[C@H]2CCOc1ccc2cnc(N[C@H]3CC[C@H](O)CC3)nc2c1` [Example 292, (1S)-1-[2-({2-[(trans-4-hydroxycyclohexyl)amino]quinazolin-7-yl}oxy)ethyl]-N-methyl-3,4-dihydro-1H-isochromene-6-carboxamide], the figure is 54%; as for `O[C@H]1CC[C@H](Nc2ncc3ccc(OC4CCN(c5cccnn5)CC4)cc3n2)CC1` [Example 293, trans-4-({7-[(1-pyridazin 3-ylpiperidin-4-yl)oxy]quinazolin-2-yl}amino)cyclohexanol], 52%; as for `O[C@H]1CC[C@H](Nc2ncc3ccc(OC[C@H]4CCCN4Cc4ccccc4)cc3n2)CC1` [Example 294, trans-4-[(7-{[(2R)-1-benzylpyrrolidin-2-yl]methoxy}quinazolin-2-yl)amino]cyclohexanol], 24%.

The record behind these values is US7998978B2 (Pfizer Inc., priority 2006, dated 2011).
